# Measurements as given in patent US9662327B2 (AGIOS PHARMACEUTICALS, INC, priority 2011, dated 2017).
# Target: IDH1 R132H (Homo sapiens (Human), UniProt O75874, R132H)
# Experiment: Assays for IDH1 R132H Inhibitors (NADPH/aKG, resazurin detection)
# Format: biochemical
# Settings: IDH1 R132H enzyme, Table 2; read-out: IDHR132H Activity
# Outline: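 Substrate mix held 8 uM NADPH plus 2 mM aKG; buffer was 20 mM Tris pH 7.5 with 150 mM NaCl, 10 mM MgCl2, 0.03% BSA. After 50 min room-temperature reaction, NADPH remaining was detected with 30 μM resazurin mix over 5 min.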
# IDH1 R132H, sequence (O75874 whole entry R132H): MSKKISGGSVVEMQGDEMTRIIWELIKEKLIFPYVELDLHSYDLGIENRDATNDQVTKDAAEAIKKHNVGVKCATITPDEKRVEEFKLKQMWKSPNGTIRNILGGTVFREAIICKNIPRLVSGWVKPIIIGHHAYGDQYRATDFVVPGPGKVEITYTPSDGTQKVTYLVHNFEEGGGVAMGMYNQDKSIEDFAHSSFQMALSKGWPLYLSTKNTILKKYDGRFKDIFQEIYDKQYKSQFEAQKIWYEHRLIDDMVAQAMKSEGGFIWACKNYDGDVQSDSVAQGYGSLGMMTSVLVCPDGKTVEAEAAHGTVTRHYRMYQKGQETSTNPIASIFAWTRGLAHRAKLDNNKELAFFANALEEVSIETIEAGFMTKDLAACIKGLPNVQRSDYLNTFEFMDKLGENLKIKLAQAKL
row,IC50,SMILES
1,0.5 to 1 µM,"CC(C)[C@@H]1CN(c2nc(C3CC3)c3c(c2C#N)CC(C)(C)OC3)CCN1C(=O)OCCO [Compound 368, (R)-2-hydroxyethyl 4-(5-cyano-8-cyclopropyl-3,3-dimethyl-3,4-dihydro-1H-pyrano[3,4-c]pyridin-6-yl)-2-isopropylpiperazine-1-carboxylate]"
2,1 to 10 µM,"COCCN1CCN(c2nc(C3CC3)c3c(c2C#N)CC(C)(C)OC3)C[C@H]1C(C)C [Compound 369, (R)-8-cyclopropyl-6-(3-isopropyl-4-(2-methoxyethyl)piperazin-1-yl)-3,3-dimethyl-3,4-dihydro-1H-pyrano[3,4-c]pyridine-5-carbonitrile]"
3,1 to 10 µM,"CC(C)[C@@H]1CN(c2nc(C3CC3)c3c(c2C#N)CC(C)(C)OC3)CCN1C(=O)OCC1CC1 [Compound 370, (R)-cyclopropylmethyl 4-(5-cyano-8-cyclopropyl-3,3-dimethyl-3,4-dihydro-1H-pyrano[3,4-c]pyridine-6-yl)-2-isopropylpiperazine-1-carboxylate]"
4,1 to 10 µM,"CC(C)[C@@H]1CN(c2nc(C3CC3)c3c(c2C#N)CC(C)(C)OC3)CCN1C(=O)CNC1CC1 [Compound 372, (R)-8-cyclopropyl-6-(4-(2-(cyclopropylamino)acetyl)-3-isopropylpiperazin-1-yl)-3,3-dimethyl-3,4-dihydro-1H-pyrano[3,4-c]pyridine-5-carbonitrile]"
5,1 to 10 µM,"C#CCNCC(=O)N1CCN(c2nc(C3CC3)c3c(c2C#N)CC(C)(C)OC3)C[C@H]1C(C)C [Compound 373, (R)-8-cyclopropyl-6-(3-isopropyl-4-(2-(prop-2-ynylamino)acetyl)piperazin-1-yl)-3,3-dimethyl-3,4-dihydro-1H-pyrano[3,4-c]pyridine-5-carbonitrile]"
6,1 to 10 µM,"CC(C)[C@@H]1CN(c2nc(C3CC3)c3c(c2C#N)CC(C)(C)OC3)CCN1C(=O)Cn1ccnc1 [Compound 374, (R)-6-(4-(2-(1H-imidazol-1-yl)acetyl)-3-isopropylpiperazin-1-yl)-8-cyclopropyl-3,3-dimethyl-3,4-dihydro-1H-pyrano[3,4-c]pyridine-5-carbonitrile]"
7,1 to 10 µM,"C[C@@H]1CN(c2nc(C3CCCCC3)c3c(c2C#N)CCOC3)CCN1C(=O)C1CC1 [Compound 375, (R)-8-cyclohexyl-6-(4-(cyclopropanecarbonyl)-3-methylpiperazin-1-yl)-3,4-dihydro-1H-pyrano[3,4-c]pyridine-5-carbonitrile]"
8,< 0.5 µM,"CC(C)[C@@H]1CN(c2nc(C3CC3)c3c(c2C#N)CC(C)(C)OC3)CCN1C(=O)C1CC1 [Compound 376, (R)-6-(4-(cyclopropanecarbonyl)-3-isopropylpiperazin-1-yl)-8-cyclopropyl-3,3-dimethyl-3,4-dihydro-1H-pyrano[3,4-c]pyridine-5-carbonitrile]"
9,1 to 10 µM,"CCCNC(=O)N1CCN(c2nc(C3CCCCC3)c3c(c2C#N)CCOC3)C[C@H]1C [Compound 378, (R)-4-(5-cyano-8-cyclohexyl-3,4-dihydro-1H-pyrano[3,4-c]pyridin-6-yl)-2-methyl-N-propylpiperazine-1-carboxamide]"
10,1 to 10 µM,"CCCC(=O)N1CCN(c2nc(C3CCCCC3)c3c(c2C#N)CCOC3)C[C@H]1C [Compound 379, (R)-6-(4-butyryl-3-methylpiperazin-1-yl)-8-cyclohexyl-3,4-dihydro-1H-pyrano[3,4-c]pyridine-5-carbonitrile]"
11,1 to 10 µM,"Cc1nccn1CC(=O)N1CCN(c2nc(C3CC3)c3c(c2C#N)CC(C)(C)OC3)C[C@H]1C(C)C [Compound 380, (R)-8-cyclopropyl-6-(3-isopropyl-4-(2-(2-methyl-1H-imidazol-1-yl)acetyl)piperazin-1-yl)-3,3-dimethyl-3,4-dihydro-1H-pyrano[3,4-c]pyridine-5-carbonitrile]"
12,0.5 to 1 µM,CCCOCC(=O)N1CCN(c2nc(C3CC3)c3c(c2C#N)CC(C)(C)OC3)C[C@H]1C(C)C [Compound 381]
13,< 0.5 µM,"CC(C)[C@@H]1CN(c2nc(C3CC3)c3c(c2C#N)CC(C)(C)OC3)CCN1C(=O)CC1CC1 [Compound 382, (R)-8-cyclopropyl-6-(4-(2-cyclopropylacetyl)-3-isopropylpiperazin-1-yl)-3,3-dimethyl-3,4-dihydro-1H-pyrano[3,4-c]pyridine-5-carbonitrile]"
14,< 0.5 µM,CCCC(=O)N1CCN(c2nc(C3CC3)c3c(c2C#N)CC(C)(C)OC3)C[C@H]1C(C)C [Compound 383]
15,1 to 10 µM,CC(C)[C@@H]1CN(c2nc(C3CC3)c3c(c2C#N)CC(C)(C)OC3)CCN1C(=O)COc1cccc(F)c1 [Compound 384]
16,1 to 10 µM,CC(C)[C@@H]1CN(c2nc(C3(C)CC3)c3c(c2C#N)CC(C)(C)OC3)CCN1C(=O)c1ccoc1 [Compound 386]
17,0.5 to 1 µM,COC(=O)C1CN(c2nc(C3CC3)c3c(c2C#N)CC(C)(C)OC3)CCN1C(=O)c1ccoc1 (centres unmarked) [Compound 387]
18,0.5 to 1 µM,COCCC(=O)N1CCN(c2nc(C3CC3)c3c(c2C#N)CC(C)(C)OC3)CC1C(=O)OC (centres unmarked) [Compound 388]
19,1 to 10 µM,COCCC(=O)N1CCN(c2nc(C3CC3)c3c(c2C#N)CC(C)(C)OC3)C[C@@H]1CC(C)C [Compound 389]
20,0.5 to 1 µM,CC(C)[C@@H]1CN(c2nc(C3CC3)c3c(c2C#N)CC(C)(C)OC3)CCN1C(=O)COCC1CC1 [Compound 390]
21,1 to 10 µM,"CCS(=O)(=O)N1CCN(c2nc(C3CC3)c3c(c2C#N)CC(C)(C)OC3)C[C@H]1C(C)C [Compound 391, (R)-8-cyclopropyl-6-(4-(ethylsulfonyl)-3-isopropylpiperazin-1-yl)-3,3-dimethyl-3,4-dihydro-1H-pyrano[3,4-c]pyridine-5-carbonitrile]"
22,0.5 to 1 µM,"COC(=O)C1CN(c2nc(C(C)C)c3c(c2C#N)CC(C)(C)OC3)CCN1C(=O)c1ccoc1 (centres unmarked) [Compound 393, methyl 4-(5-cyano-8-isopropyl-3,3-dimethyl-3,4-dihydro-1H-pyrano[3,4-c]pyridin-6-yl)-1-(furan-3-carbonyl)piperazine-2-carboxylate]"
23,0.5 to 1 µM,"COC(=O)C1CN(c2nc(C3CC3)c3c(c2C#N)CC(C)(C)OC3)CCN1C(=O)c1ccoc1C (centres unmarked) [Compound 394, methyl 4-(5-cyano-8-cyclopropyl-3,3-dimethyl-3,4-dihydro-1H-pyrano[3,4-c]pyridin-6-yl)-1-(2-methylfuran-3-carbonyl)piperazine-2-carboxylate]"
24,< 0.5 µM,"COCCC(=O)N1CCN(c2nc(C3CCC3)c3c(c2C#N)CC(C)(C)OC3)C[C@H]1C(C)C [Compound 395, (R)-8-cyclobutyl-6-(3-isopropyl-4-(3-methoxypropanoyl)piperazin-1-yl)-3,3-dimethyl-3,4-dihydro-1H-pyrano[3,4-c]pyridine-5-carbonitrile]"
25,0.5 to 1 µM,"CC(C)[C@@H]1CN(c2nc(C3CCC3)c3c(c2C#N)CC(C)(C)OC3)CCN1C(=O)C1CC1 [Compound 396, (R)-8-cyclobutyl-6-(4-(cyclopropanecarbonyl)-3-isopropylpiperazin-1-yl)-3,3-dimethyl-3,4-dihydro-1H-pyrano[3,4-c]pyridine-5-carbonitrile]"
26,1 to 10 µM,"COC(=O)CN1CCN(c2nc(C3CC3)c3c(c2C#N)CC(C)(C)OC3)C[C@H]1C(C)C [Compound 397, (R)-methyl 2-(4-(5-cyano-8-cyclopropyl-3,3-dimethyl-3,4-dihydro-1H-pyrano[3,4-c]pyridin-6-yl)-2-isopropylpiperazin-1-yl)acetate]"
